{
  "source": "paper PMC12741935",
  "about": "(Alzheimer's & Dementia, 2025)",
  "key": {"[1]": {"assay": "Plasma and brain NVS-PAK1-1 concentrations in 5xFAD mice", "assay_type": "in vivo", "conditions": "for concentration at 4 h: mouse, po, 100 mg/kg, 4 h after final dose", "procedure": "Serial blood was collected from n = 3 per treatment group at 0.5, 1, 2, and 4 hours post dose; with terminal blood and brain collected at 4 hours post dose. A staggered cohort of n = 3 per treatment group were assigned to serial blood collections at 0.5, 1, 2, and 8 hours post dose with terminal blood and brain collected at 4 and 24 hours post dose. Informed by exposure data from the initial PK/PD study, a subsequent chronic PK/PD study was designed to evaluate twice daily treatment of 100 mg/kg (PO) in female and male 5xFAD mice compared to age‐ and sex‐matched vehicle‐treated 5xFAD and vehicle‐treated WT littermate controls (Table S2 in supporting information). Terminal blood and brain was collected at 4 hours after the final dose. […] All in vivo target engagement and PK/PD studies were conducted under blinded conditions for age, genotype, and treatment, and the blind was maintained until after analyses were conducted.\nDrug concentrations were prepared immediately before dosing each day. The dose volume was delivered at 10 mL/kg based on each subject's daily weight collected just prior to the morning dose and administered via PO. For the chronic PD study, twice daily dosing (BID) was conducted between 7:00 and 9:00 am each morning and 3:00 to 5:00 pm each evening with the same day's formulation stored at 4°C between dosing intervals.\nFor serial blood sampling, 50 µL of blood was collected via the tail tip route into heparin‐coated glass capillary tubes (Drummond scientific # 1‐000‐7500‐C/5) in non‐anesthetized mice. For all terminal timepoints, tissue collection was conducted at 4 or 24 hours post dose for acute studies (Tables S1–S2) and 4 hours after the final dose administrated for chronic studies. Mice were anesthetized with isoflurane to the surgical plane of anesthesia. After decapitation, trunk blood was collected into heparin‐coated tubes for terminal PK analysis with the remaining trunk blood decanted into EDTA‐coated tubes for PD analysis. Blood was kept on ice until centrifugation (typically 20–60 minutes post collection), then centrifuged at 19745 g for 10 minutes at 4°C for PK samples and 20 minutes for PD samples (e.g., plasma Aβ40, Aβ42, neurofilament light chain [NfL]), followed by storage at −80°C until analysis. The brain was quickly removed from the skull, briefly rinsed in cold PBS, and divided sagittally at the midline into left and right hemispheres. The left hemisphere without cerebellum was quickly chopped and mixed into three equally aliquoted mixed parts then placed into three cold cryotubes. Cryotubes were immediately snap frozen on dry ice and stored at −80°C until analysis. The right hemisphere was maintained intact and immediately placed on dry ice and stored at −80°C until shipped to Stanford University for Golgi staining and morphological analyses.\nFor plasma samples, three volumes of acetonitrile containing internal standard was added to one volume of plasma, and centrifuged at 3000 g for 10 minute; then, the supernatant was removed and analyzed by LC‐MS/MS. Calibration standards and quality controls were prepared from a 1 mg/mL stock solution and subsequently a series of working solutions in methanol:water (1:1, v/v) that are spiked into blank plasma to yield a series of calibration standard samples in the range of 1 ng/mL to 10 µg/mL and QC samples at three concentration levels (low, middle, and high). All plasma samples were treated identically to the calibration standards and QC samples. For analysis of brain, one third of the left mixed‐chopped hemisphere was homogenized in three volumes of PBS buffer (pH 7.4; v/w = 3/1). Subsequently, three volumes of acetonitrile‐containing internal standard was added to one volume of each tissue homogenate, and the mixture was vortexed, centrifuged at 3000 g for 10 minutes, and supernatants were used for LC‐MS/MS."}, "NfL, Aβ40, Aβ42": {"system": "NfL, Aβ40, Aβ42", "assay": "Plasma NfL and plasma/brain Aβ40, Aβ42 ELISA in chronically treated 5xFAD mice", "assay_type": "in vivo", "conditions": "chronic 100 mg/kg BID PO", "procedure": "V-PLEX Aβ Peptide Panel 1 (4G8) Kit (Meso Scale Diagnostics, LLC #[…]) was used for Aβ40/Aβ42 detection and S-PLEX Neurofilament L Kit (Meso Scale Diagnostics, LLC # […]) was used for NfL analysis, according to the manufacturer's protocols. […] The supernatant recovered was the DEA soluble fraction containing the soluble Aβ isoforms. […] For ELISA, the DEA-soluble fraction was diluted at 10 times and 40 times and the insoluble fraction was diluted at 40 times and 300 times. The assay plates were read by MESO […] plate reader and analyzed using Discovery Workbench Software (MesoScale Discovery). All samples were run in duplicate and averaged for analysis. Brain concentrations of the soluble and insoluble Aβ were normalized to total protein. All samples from a single plasma collection timepoint were run together on the appropriate MSD plate with the kit provided calibration standards."}},
  "note": "Where two headings read alike, the source gives them in different places.",
  "data": [
    {"compound": "CC(C)NC(=O)N1CC[C@H](NC2=Nc3cc(F)ccc3N(CC(F)F)c3ccc(Cl)cc32)C1", "note": "[NVS‐PAK1‐1, (S)‐3‐([2‐chloro‐5‐(2,2‐difluoroethyl)‐8‐fluoro‐5H‐dibenzo[b,e][1,4]diazepin‐11‐yl]amino)‐N‐isopropylpyrrolidine‐1‐carboxamide]", "values": [
      {"measurement": "concentration at 4 h", "setting": "[1]; female, 5xFAD, brain, aged 5xFAD females, 100 mg/kg BID PO 31 days, read-out: brain concentration", "value": "58.3 ± 26.1", "unit": "ng/g"},
      {"measurement": "concentration at 4 h", "setting": "[1]; female, 5xFAD, brain, young 5xFAD females, 100 mg/kg BID PO 12 weeks, read-out: mean brain concentration", "value": "44.9 ± 14.1", "unit": "ng/g"},
      {"measurement": "concentration at 4 h", "setting": "[1]; female, 5xFAD, plasma, aged 5xFAD females, 100 mg/kg BID PO 31 days, read-out: plasma concentration", "value": "354 ± 138", "unit": "ng/mL"},
      {"measurement": "concentration at 4 h", "setting": "[1]; female, 5xFAD, plasma, young 5xFAD females, 100 mg/kg BID PO 12 weeks, read-out: average plasma concentration", "value": "324 ± 104", "unit": "ng/mL"},
      {"measurement": "concentration at 4 h", "setting": "[1]; male, 5xFAD, brain, aged 5xFAD males, 100 mg/kg BID PO 31 days, read-out: brain concentration", "value": "49.1 ± 17.6", "unit": "ng/g"},
      {"measurement": "concentration at 4 h", "setting": "[1]; male, 5xFAD, brain, young 5xFAD males, 100 mg/kg BID PO 12 weeks, read-out: mean brain concentration", "value": "98.5 ± 34.4", "unit": "ng/g"},
      {"measurement": "concentration at 4 h", "setting": "[1]; male, 5xFAD, plasma, aged 5xFAD males, 100 mg/kg BID PO 31 days, read-out: plasma concentration", "value": "140 ± 27.9", "unit": "ng/mL"},
      {"measurement": "concentration at 4 h", "setting": "[1]; male, 5xFAD, plasma, young 5xFAD males, 100 mg/kg BID PO 12 weeks, read-out: average plasma concentration", "value": "309 ± 104", "unit": "ng/mL"},
      {"measurement": "levels in brain or plasma", "setting": "[1]; single PO dose 100 mg/kg, 24 hours post administration, 5xFAD", "value": "lack of detectable levels"},
      {"measurement": "brain concentration", "setting": "[1]; single PO dose 10 or 50 mg/kg, 24 hours post dose, aged 5xFAD", "value": "BLOQ"},
      {"measurement": "brain amyloid accumulation, soluble (DEA) and insoluble (FA) fractions", "setting": "NfL, Aβ40, Aβ42; 5xFAD", "value": "mirrored Aβ plasma values"},
      {"measurement": "plasma NfL", "setting": "NfL, Aβ40, Aβ42; young, aged, male, or female 5xFAD cohorts", "value": "did not significantly lower"}
    ]}
  ]
}
